According to patent US20130324412A1, “N-ALKOXYAMIDES OF 6-(SUBSTITUTED PHENYL)-4-AMINOPICOLINATES AND 2-(SUBSTITUTED PHENYL)-6-AMINO-4-PYRIMIDINECARBOXYLATES AND THEIR USE AS SELECTIVE HERBICIDES FOR CROPS” (DOW AGROSCIENCES LLC, priority 2009, published 2013):

Experiments:
Assay type in all cases: in vivo
corn (Zea mays) = experiment: General postemergence herbicidal activity, corn; conditions: post-emergence, 336 h, 70 g ai/ha, postemergence, after 14 d, 0 = no injury, 100 = complete kill, read-out: ZEAMX % Visual Injury
Procedure, shortened: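 Greenhouse plants at first to second true leaf stage sprayed overhead at 187 L/ha in acetone/DMSO with crop oil concentrate and surfactant, at a high rate plus ½× to 1/16× serial dilutions. Injury rated visually after 14 d against solvent-blank controls, 0 (none) to 100% (complete kill).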

[1] = tested on: wild buckwheat (Polygonum convululus); experiment: Postemergence herbicidal activity in corn, wild buckwheat; conditions: corn test, visual rating after 21 d, probit analysis, dose to kill or control 80 percent
Experimental: (§1) Seeds of corn and the desired weed species were planted in Sun Gro MetroMix 360 planting mixture, which typically has a pH of 6.0 to 6.8 and an organic matter content of about 30 percent, in plastic pots with a surface area of 95 cm^2. When required to ensure good germination and healthy plants, a fungicide treatment and/or other chemical or physical treatment was applied. The plants were grown for 7-21 d in a greenhouse with an approximate 15-h photoperiod which was maintained at about 23-29° C. during the day and 22-28° C. during the night. Nutrients and water were added on a regular basis and supplemental lighting was provided with overhead metal halide 1000-Watt lamps as necessary. The corn plants were utilized for testing when they reached the second true leaf stage. The weed species were utilized at the first or second true leaf stage.
(§2) A weighed amount, determined by the highest rate to be tested, of each test compound was dissolved in 4 mL of a 97:3 v/v mixture of acetone and DMSO to obtain concentrated stock solutions. […] The concentrated stock solutions obtained were diluted with 20 mL of an aqueous mixture containing acetone, water, isopropyl alcohol, DMSO, Atplus 411F crop oil concentrate, and Triton X-155 surfactant in a 48.5:39:10:1.5:1.0:0.02 v/v ratio to obtain spray solutions containing the highest application rates. […]
(§3) The treated plants and control plants were placed in a greenhouse as described above and watered by sub-irrigation to prevent wash-off of the test compounds. After 21 d, the condition of the test plants as compared with that of the untreated plants was determined visually and scored on a scale of 0 to 100 percent where 0 corresponds to no injury and 100 corresponds to complete kill. […]

[2] = tested on: lambsquarters (Chenopodium album); experiment: Postemergence herbicidal activity in corn, lambsquarters; conditions: corn test, visual rating after 21 d, probit analysis, dose to kill or control 80 percent
Experimental: as §1, §2, §3

COc1c(Cl)ccc(-c2cc(N)c(Cl)c(C(=O)NOCC(C)C)n2)c1F [Compound 1, 4-amino-3-chloro-6-(4-chloro-2-fluoro-3-methoxyphenyl)-N-(2-methylpropoxy)picolinamide]
plant injury at 70 g/ha (corn (Zea mays)): 0%
POLCO GR80 [1]: <4 g ai/ha
CHEAL GR80 [2]: <4 g ai/ha

CONC(=O)c1nc(-c2ccc(Cl)c(OC)c2F)cc(N)c1Cl [Compound 2, 4-Amino-3-chloro-6-(4-chloro-2-fluoro-3-methoxyphenyl)-N-methoxypicolinamide]
plant injury at 70 g/ha (corn (Zea mays)): 10%
POLCO GR80 [1]: 6 g ai/ha
CHEAL GR80 [2]: <4 g ai/ha
